# Source: patent US10494404B2, “Quinolinium conjugates of cyclosporin” (priority 2014, dated 2019)
# Experiments:
# [1] = tested on: Ca^2+ mediated PT pore formation (CypD KO mitochondria); test: Calcium retention capacity (CRC) assay, liver mitochondria from CypD knockout mice; type: biochemical, mouse
# Method: Subcellular fractionation was performed as previously described (Astin et al, 2013). […] At 4° C., the liver was rinsed in PBS to remove excess blood, and any fat and connective tissue was eliminated. PBS was then replaced with isolation buffer containing 1 mM PMSF, and the liver was chopped into pieces (approximately 2 mm in length). Tissue was then homogenized in this solution until no solid matter remained, and then centrifuged at 800G for 10 minutes at 4° C. The nuclear pellet was then discarded, and the post nuclear supernatant retained, and centrifuged at 10300G for another 10 minutes at 4° C. […] Protein levels were quantified using a ThermoScientific BCA protein quantification assay, as per manufacturer's instructions.
# Isolated mitochondria were resuspended (500 μg protein/ml) in MSK buffer (75 mM mannitol, 25 mM sucrose, 5 mM potassium phosphate monobasic, 20 mM Tris-HCl, 100 mM KCl, and 0.1% bovine serum albumin, pH 7.4) supplemented with 10 mM succinate, 1 μM rotenone and 1 μM Fluo5N. […] Compounds were incubated for ten minutes before the plate was assayed in a Fluostar Optima plate reader, using Ex/Em filters at 480/520 […]; CaCl2 was injected approximately every 6.5 minutes for 80 minutes (12 total injections, final concentration of 75 μM). […] Percentage inhibition for each [compound] was then calculated as the % of the corresponding value for the untreated condition. […]
# [2] = tested on: DIV 8-9 rat cortical neurons; test: Mitochondrial functional parameters in DIV 8-9 rat cultured cortical neurons; type: cell-based; conditions: Compound 1 up to 200 nM, CsA up to 1 μM
# Method: The minimum value after the addition of compound (prior to the addition of FCCP) was taken, and this was expressed as a % (using baseline as 100% and FCCP as 0%), and then normalized to DMSO (100%). Significance was assessed by one-way ANOVA, in comparison to DMSO control.
# Freshly isolated mitochondria were resuspended in MSK buffer (containing 10 mM glutamate and 2 mM malate) at 1 mg/ml and plated in opaque white 96 well plates, or for neuronal assays, neurons were used 9 days after plating at 15000 cells/well. Drugs were added at the concentrations specified, and for mitochondrial assays were incubated for ten minutes before addition of ADP (5 mM), followed by another 45 minutes. For neuronal assays, drugs were added in neurobasal medium and incubated for 60 minutes. Cell Titer Glo reagent was then added, and the plate shaken for 2 minutes in the dark to lyse cells/mitochondria and release ATP. The plates were incubated a further ten minutes and then luminescence values read using an Optima FluoStar.
# [3] = tested on: T cell proliferative response in the draining auricular lymph node; test: Oxazolone contact hypersensitivity model, in vivo T cell proliferation; set-up: species or system mouse
# Method: To identify non-immunosuppressive doses of potential neuroprotective compounds for use in models of MS (Al-Izki et al, 2014) we employed a model using epicutaneous application of the ear skin sensitizer, oxazolone, to induce a T cell proliferative response in the draining auricular lymph node peaking 3 days later (Baker et al, 2011).
# The contact sensitiser 4-ethoxymethylene-2-phenyl-2-oxazolin-5-one (oxazolone, OX, Sigma) was dissolved (25 mg/ml) in 4:1 acetone:olive oil (AOO). Mice (n=3 per group) received epicutaneous application of either 25 μl of 2.5% OX or AOO on the dorsum of the ear on day 0 (O'Neill et al, 1992). The draining auricular lymph nodes were removed three days later and the induced proliferative response was assessed as previously described. Briefly, 5×10^5 cells per well were cultured in RPMI-1640 medium with glutamate (Gibco®, Invitrogen Ltd, Paisley UK), supplemented with 0.5 mM sodium, in round-bottomed 96 well plates overnight at 37° C. in a humidified atmosphere of 5% CO2. In the presence of 1 μCi^3H-thymidine (PerkinElmer, Mass., USA) per well. […] Results are expressed as mean±SEM thymidine incorporation counts per minute (CPM)
smiles,measurement,setting,value
"CC[C@@H]1NC(=O)[C@H]([C@H](O)[C@H](C)C/C=C/CCC[n+]2cccc3ccccc32)N(C)C(=O)[C@H](C(C)C)N(C)C(=O)[C@H](CC(C)C)N(C)C(=O)[C@H](CC(C)C)N(C)C(=O)[C@@H](C)NC(=O)[C@H](C)NC(=O)[C@H](CC(C)C)N(C)C(=O)[C@H](C(C)C)NC(=O)[C@H](CC(C)C)N(C)C(=O)CN(C)C1=O [Compound 1, [Gly-(1S,2R,E)-8-quinolinium-1-hydroxy-2-methyloct-4-ene]^1 CsA]",effect on CRC,[1],Neither CsA nor Compound 1 had any effect
same,mitochondrial membrane potential,[2]; TMRM,"Neither mitochondrial membrane potential (FIG. 4A,B), oxygen consumption (FIG. 4C, D) and ATP production (FIG. 4E, F) were affected"
same,ATP levels / ATP production,[2]; luciferase assay,"Neither mitochondrial membrane potential (FIG. 4A,B), oxygen consumption (FIG. 4C, D) and ATP production (FIG. 4E, F) were affected"
same,effect on T cell response,[3]; daily 0.1 mg/kg i.p.,had no effect
same,effect on T cell response,[3]; daily 1 mg/kg i.p.,had no effect
same,effect on T cell response,[3]; daily 10 mg/kg i.p.,inhibited the T cell response
